From patent US20140162875A1, “N-Thio-Anthranilamide Compounds and Their Use as Pesticides” (BASF SE, priority 2011, published 2014)

Assays:
Assay type in all cases: in vivo
[1] = test system: boll weevil (Anthonomus grandis); test: Boll weevil microtiter plate insect diet test; conditions: 120 h, egg and larval mortality after 5 days, read-out: mortality in comparison with untreated controls
Procedure: For evaluating control of boll weevil (Anthonomus grandis) the test unit consisted of 96-well-microtiter plates containing an insect diet and 5-10 A. grandis eggs.
(§1) The compounds were formulated using a solution containing 75% v/v water and 25% v/v DMSO. Different concentrations of formulated compounds were sprayed onto the insect diet at 5 μl, using a custom built micro atomizer, at two replications.
After application, microtiter plates were incubated at about 25±1° C. and about 75±5% relative humidity for 5 days. Egg and larval mortality was then visually assessed.

[2] = test system: Diamond Back Moth (Plutella Xylostella); test: Diamond back moth cabbage leaf dip test; conditions: foliar, dipped cabbage leaves, 3rd instar larvae, 72 hours after treatment, read-out: mortality in comparison with untreated controls
Procedure: (§2) The active compound was dissolved at the desired concentration in a mixture of 1:1 (vol:vol) distilled water:acetone. Surfactant (Alkamuls® EL 620) is added at a rate of 0.1% (vol/vol). The test solution was prepared at the day of use.
Leaves of cabbage were dipped in test solution and air-dried. Treated leaves were placed in petri dishes lined with moist filter paper and inoculated with ten 3rd instar larvae. Mortality was recorded 72 hours after treatment. Feeding damages were also recorded using a scale of 0-100%.

[3] = test system: Cowpea Aphid (Aphis Craccivora); test: Cowpea aphid spray test on potted cowpea plants; conditions: sprayed cowpea plants, assessed after 72 hours, read-out: mortality in comparison with untreated controls
Procedure: as §2
Potted cowpea plants were colonized with approximately 50-100 aphids of various stages by manually transferring a leaf tissue cut from infested plant 24 hours before application. Plants were sprayed after the pest population has been recorded. Treated plants were maintained on light carts at about 28° C. Percent mortality was assessed after 72 hours.

[4] = test system: Tobacco Budworm (Heliothis Virescens); test: Tobacco budworm cotton plant spray test; conditions: 96 h, larvae on sprayed cotton plants, 4 days after treatment, read-out: mortality in comparison with untreated controls
Procedure: (§3) The active compounds were formulated in cyclohexanone as a 10,000 ppm solution supplied in tubes. The tubes were inserted into an automated electrostatic sprayer equipped with an atomizing nozzle and they served as stock solutions for which lower dilutions were made in 50% acetone:50% water (v/v). A nonionic surfactant (Kinetic®) was included in the solution at a volume of 0.01% (v/v).
Cotton plants were grown 2 plants to a pot and selected for treatment at the cotyledon stage. Test solutions were sprayed onto the foliage by an automated electrostatic plant sprayer equipped with an atomizing spray nozzle. The plants were dried in the sprayer fume hood and then removed from the sprayer. Each pot was placed into perforated plastic bags with a zip closure. About 10 to 11 budworm larvae were placed into the bag and the bags zipped closed. Test plants were maintained in a growth room at about 25° C. and about 20-40% relative humidity for 4 days, avoiding direct exposure to fluorescent light (24 hour photoperiod) to prevent trapping of heat inside the bags. Mortality and reduced feeding were assessed 4 days after treatment, compared to untreated control plants.

[5] = test system: Southern Armyworm (Spodoptera Eridania); test: Southern armyworm lima bean plant spray test; conditions: 96 h, larvae on sprayed lima bean plants, 4 days after treatment, read-out: mortality in comparison with untreated controls
Procedure: as §3
Lima bean plants (variety Sieva) were grown 2 plants to a pot and selected for treatment at the 1st true leaf stage. Test solutions were sprayed onto the foliage by an automated electrostatic plant sprayer equipped with an atomizing spray nozzle. The plants were dried in the sprayer fume hood and then removed from the sprayer. Each pot was placed into perforated plastic bags with a zip closure. About 10 to 11 armyworm larvae were placed into the bag and the bags zipped closed. Test plants were maintained in a growth room at about 25° C. and about 20-40% relative humidity for 4 days, avoiding direct exposure to fluorescent light (24 hour photoperiod) to prevent trapping of heat inside the bags. Mortality and reduced feeding were assessed 4 days after treatment, compared to untreated control plants.

[6] = test system: Colorado Potato Beetle (Leptinotarsa Decemlineata); test: Colorado potato beetle eggplant foliage spray test; conditions: foliar, 96 h, beetle larvae on sprayed eggplant foliage, 4 days after treatment, read-out: mortality in comparison with untreated controls
Procedure: as §3
Eggplants were grown 2 plants to a pot and were selected for treatment at the 1st true leaf stage. Test solutions were sprayed onto the foliage by an automated electrostatic plant sprayer equipped with an atomizing spray nozzle. The plants were dried in the sprayer fume hood and then removed from the sprayer. The treated foliage was then cut and removed from the pot and placed in a Petri dish lined with moistened filter paper. Five beetle larvae were introduced into each Petri dish and the dish was covered by a Petri dish lid. Petri dishes were maintained in a growth room at about 25° C. and about 20-40% relative humidity for 4 days, avoiding direct exposure to fluorescent light (24 hour photoperiod) to prevent trapping of heat inside the dishes. Mortality and reduced feeding were assessed 4 days after treatment, compared to untreated control plants.

[7] = test system: Orchid Thrips (Dichromothrips Corbetti); test: Orchid thrips floral-immersion test; conditions: adult thrips on dipped orchid flowers, 72 hours after treatment, read-out: mortality in comparison with untreated controls
Procedure: Dichromothrips corbetti adults used for bioassay are obtained from a colony maintained continuously under laboratory conditions. For testing purposes, the test compound was diluted in a 1:1 mixture of acetone:water (vol:vol), plus 0.01% vol/vol Alkamuls® EL 620 surfactant.
Thrips potency of each compound was evaluated by using a floral-immersion technique. Plastic petri dishes were used as test arenas. All petals of individual, intact orchid flowers are dipped into treatment solution and allowed to dry. Treated flowers were placed into individual petri dishes along with −about 20 adult thrips. The petri dishes were then covered with lids. All test arenas were held under continuous light and a temperature of about 28° C. for duration of the assay. After 3 days, the numbers of live thrips were counted on each flower, and along inner walls of each petri dish. The percent mortality was recorded 72 hours after treatment.

[8] = test system: vetch aphid (Megoura viciae); test: Vetch aphid broad bean leaf disk microtiter test; conditions: foliar, 120 h, adult aphids on broad bean leaf disks, 5 days, read-out: mortality in comparison with untreated controls
Procedure: For evaluating control of vetch aphid (Megoura viciae) through contact or systemic means the test unit consisted of 24-well-microtiter plates containing broad bean leaf disks.
The compounds were formulated using a solution containing 75% v/v water and 25% v/v DMSO. Different concentrations of formulated compounds were sprayed onto the leaf disks at 2.5 μl, using a custom built micro atomizer, at two replications.
After application, the leaf disks were air-dried and 5-8 adult aphids placed on the leaf disks inside the microtiter plate wells. The aphids were then allowed to suck on the treated leaf disks and incubated at about 23±1° C. and about 50±5% relative humidity for 5 days. Aphid mortality and fecundity was then visually assessed.

[9] = test system: Mediterranean fruitfly (Ceratitis capitata); test: Mediterranean fruitfly microtiter plate insect diet test; conditions: 120 h, egg and larval mortality after 5 days, read-out: mortality in comparison with untreated controls
Procedure: For evaluating control of Mediterranean fruitfly (Ceratitis capitata) the test unit consisted of microtiter plates containing an insect diet and 50-80 C. capitata eggs.
as §1
After application, microtiter plates were incubated at about 28±1° C. and about 80±5% relative humidity for 5 days. Egg and larval mortality was then visually assessed.

[10] = test system: Silverleaf Whitefly (Bemisia Argentifolii); test: Silverleaf whitefly cotton plant spray test; conditions: 300 ppm; whitefly adults on sprayed cotton plants; 3 days after treatment
Text: as §3
Cotton plants at the cotyledon stage (one plant per pot) were sprayed by an automated electrostatic plant sprayer equipped with an atomizing spray nozzle. The plants were dried in the sprayer fume hood and then removed from the sprayer. Each pot was placed into a plastic cup and about 10 to 12 whitefly adults (approximately 3-5 days old) were introduced. The insects were collected using an aspirator and a nontoxic Tygon® tubing connected to a barrier pipette tip. The tip, containing the collected insects, was then gently inserted into the soil containing the treated plant, allowing insects to crawl out of the tip to reach the foliage for feeding. Cups were covered with a reusable screened lid. Test plants were maintained in a growth room at about 25° C. and about 20-40% relative humidity for 3 days, avoiding direct exposure to fluorescent light (24 hour photoperiod) to prevent trapping of heat inside the cup. Mortality was assessed 3 days after treatment, compared to untreated control plants.

Cc1cc(Cl)cc(C(=O)/N=S2/CCSC2)c1NC(=O)c1cnn(CC(F)(F)F)c1-c1ncccc1Cl (stereo not shown) [Compound 1-1, N-[4-chloro-2-((Z)-1,3-dithiolan-1-ylidenecarbamoyl)-6-methyl-phenyl]-5-(3-chloro-2-pyridyl)-1-(2,2,2-trifluoroethyl)pyrazole-4-carboxamide]
≥ 75%: mortality at 2500 ppm [1] | mortality at 300 ppm [2] | mortality at 300 ppm [3] | mortality at 2500 ppm [4] | mortality at 300 ppm [5] | mortality at 300 ppm [6] | mortality at 300 ppm [7] | mortality at 2500 ppm [8] | mortality at 2500 ppm [9]

Cc1cc(Cl)cc(C(=O)N=S(C(C)C)C(C)C)c1NC(=O)c1cnn(CC(F)(F)F)c1-c1ncccc1Cl [Compound 1-2]
at least 75%: mortality in comparison with untreated controls [10]
